Laboratory results: ChEMBL document CHEMBL4043145, “Pyridine-pyrimidine amides that prevent HGF-induced epithelial scattering by two distinct mechanisms” (Bioorg Med Chem Lett, 2017)

Assays:
Type in all cases: functional
MCF7 [1] = assay: Induction of apoptosis in human MCF7 cells assessed as viable cells at 300 nM by 7-AAD/Annexin staining-based assay (reference value: 92.6 to 96.8%); details: read-out: Activity
MFE-296 [2] = assay: Induction of apoptosis in human MFE296 cells assessed as early apoptotic cells at 1000 nM by 7-AAD/Annexin staining-based assay (reference value: 1.5 to 2.1%)
MCF7 [3] = assay: Induction of apoptosis in human MCF7 cells assessed as viable cells at 100 nM by 7-AAD/Annexin staining-based assay (reference value: 92.6 to 96.8%); details: read-out: Activity
A2780 [4] = assay: Induction of apoptosis in human A2780 cells assessed as viable cells at 1000 nM by 7-AAD/Annexin staining-based assay (reference value: 95 to 96.7%); details: read-out: Activity
A2780 [5] = assay: Induction of apoptosis in human A2780 cells assessed as nuclear debris at 300 nM by 7-AAD/Annexin staining-based assay (reference value: 0.3 to 1.1%)
MFE-280 [6] = assay: Induction of apoptosis in human MFE280 cells assessed as nuclear debris at 300 nM by 7-AAD/Annexin staining-based assay (reference value: 0.5 to 2.3%)
MFE-280 [7] = assay: Induction of apoptosis in human MFE280 cells assessed as viable cells at 300 nM by 7-AAD/Annexin staining-based assay (reference value: 84.9 to 87.7%); details: read-out: Activity
MCF7 [8] = assay: Induction of apoptosis in human MCF7 cells assessed as late apoptotic cells at 300 nM by 7-AAD/Annexin staining-based assay (reference value: 1 to 2.1%)
A2780 [9] = assay: Induction of apoptosis in human A2780 cells assessed as late apoptotic cells at 300 nM by 7-AAD/Annexin staining-based assay (reference value: 1.2 to 2.2%)
MFE-296 [10] = assay: Induction of apoptosis in human MFE296 cells assessed as nuclear debris at 100 nM by 7-AAD/Annexin staining-based assay (reference value: 0.4 to 0.8%)
MFE-280 [11] = assay: Induction of apoptosis in human MFE280 cells assessed as nuclear debris at 100 nM by 7-AAD/Annexin staining-based assay (reference value: 0.5 to 2.3%)
A2780 [12] = assay: Induction of apoptosis in human A2780 cells assessed as nuclear debris at 100 nM by 7-AAD/Annexin staining-based assay (reference value: 0.3 to 1.1%)
PC-3 [13] = assay: Induction of apoptosis in human p53-null PC3 cells assessed as late apoptotic cells at 100 nM by 7-AAD/Annexin staining-based assay (reference value: 0.4 to 1.6%)
PC-3 [14] = assay: Induction of apoptosis in human p53-null PC3 cells assessed as late apoptotic cells at 1000 nM by 7-AAD/Annexin staining-based assay (reference value: 0.4 to 1.6%)
MCF7 [15] = assay: Induction of apoptosis in human MCF7 cells assessed as early apoptotic cells at 300 nM by 7-AAD/Annexin staining-based assay (reference value: 2 to 2.7%)
PC-3 [16] = assay: Induction of apoptosis in human p53-null PC3 cells assessed as early apoptotic cells at 1000 nM by 7-AAD/Annexin staining-based assay (reference value: 0.6 to 1.4%)
MFE-296 [17] = assay: Induction of apoptosis in human MFE296 cells assessed as late apoptotic cells at 1000 nM by 7-AAD/Annexin staining-based assay (reference value: 3.6 to 6.6%)
PC-3 [18] = assay: Induction of apoptosis in human p53-null PC3 cells assessed as viable cells at 1000 nM by 7-AAD/Annexin staining-based assay (reference value: 96.5 to 98.6%); details: read-out: Activity
MFE-280 [19] = assay: Induction of apoptosis in human MFE280 cells assessed as viable cells at 1000 nM by 7-AAD/Annexin staining-based assay (reference value: 84.9 to 87.7%); details: read-out: Activity
PC-3 [20] = assay: Induction of apoptosis in human p53-null PC3 cells assessed as early apoptotic cells at 300 nM by 7-AAD/Annexin staining-based assay (reference value: 0.6 to 1.4%)
T47D [21] = assay: Induction of apoptosis in human T47D cells assessed as late apoptotic cells at 1000 nM by 7-AAD/Annexin staining-based assay (reference value: 3 to 13.4%)
T47D [22] = assay: Induction of apoptosis in human T47D cells assessed as nuclear debris at 300 nM by 7-AAD/Annexin staining-based assay (reference value: 0.2 to 7.7%)
A2780 [23] = assay: Induction of apoptosis in human A2780 cells assessed as viable cells at 100 nM by 7-AAD/Annexin staining-based assay (reference value: 95 to 96.7%); details: read-out: Activity
PC-3 [24] = assay: Induction of apoptosis in human p53-null PC3 cells assessed as nuclear debris at 1000 nM by 7-AAD/Annexin staining-based assay (reference value: 0.1 to 0.5%)
T47D [25] = assay: Induction of apoptosis in human T47D cells assessed as viable cells at 1000 nM by 7-AAD/Annexin staining-based assay (reference value: 74.5 to 94.5%); details: read-out: Activity
A2780 [26] = assay: Induction of apoptosis in human A2780 cells assessed as late apoptotic cells at 1000 nM by 7-AAD/Annexin staining-based assay (reference value: 1.2 to 2.2%)
MFE-296 [27] = assay: Induction of apoptosis in human MFE296 cells assessed as late apoptotic cells at 100 nM by 7-AAD/Annexin staining-based assay (reference value: 3.6 to 6.6%)
PC-3 [28] = assay: Induction of apoptosis in human p53-null PC3 cells assessed as viable cells at 300 nM by 7-AAD/Annexin staining-based assay (reference value: 96.5 to 98.6%); details: read-out: Activity
MCF7 [29] = assay: Induction of apoptosis in human MCF7 cells assessed as nuclear debris at 1000 nM by 7-AAD/Annexin staining-based assay (reference value: 0.2 to 3%)
MFE-296 [30] = assay: Cell cycle arrest in human MFE296 cells assessed as accumulation at G1 phase at 100 nM (reference value: 61.05 to 64.87%)
MFE-296 [31] = assay: Cell cycle arrest in human MFE296 cells assessed as accumulation at G2/M phase at 1000 nM (reference value: 15.71 to 17.04%)
MFE-280 [32] = assay: Cell cycle arrest in human MFE280 cells assessed as accumulation at G1 phase at 1000 nM (reference value: 64.99 to 67.86%)
T47D [33] = assay: Cell cycle arrest in human T47D cells assessed as accumulation at S phase at 300 nM (reference value: 19.89 to 24.55%)
MCF7 [34] = assay: Cell cycle arrest in human MCF7 cells assessed as accumulation at G1 phase at 1000 nM (reference value: 47.47 to 52.3%)
MFE-280 [35] = assay: Induction of apoptosis in human MFE280 cells assessed as late apoptotic cells at 1000 nM by 7-AAD/Annexin staining-based assay (reference value: 6 to 7.4%)
T47D [36] = assay: Cell cycle arrest in human T47D cells assessed as accumulation at G1 phase at 300 nM (reference value: 45.5 to 57.8%)

Structure (SMILES) | viability at 0.3 µM (MCF7 [1]) [%] | Activity (MFE-296 [2]) [%] | viability at 0.1 µM (MCF7 [3]) [%] | viability at 1 µM (A2780 [4]) [%] | Activity (A2780 [5]) [%] | Activity (MFE-280 [6]) [%] | viability at 0.3 µM (MFE-280 [7]) [%] | Activity (MCF7 [8]) [%] | Activity (A2780 [9]) [%] | Activity (MFE-296 [10]) [%] | Activity (MFE-280 [11]) [%] | Activity (A2780 [12]) [%] | Activity (PC-3 [13]) [%] | Activity (PC-3 [14]) [%] | Activity (MCF7 [15]) [%] | Activity (PC-3 [16]) [%] | Activity (MFE-296 [17]) [%] | viability at 1 µM (PC-3 [18]) [%] | viability at 1 µM (MFE-280 [19]) [%] | Activity (PC-3 [20]) [%] | other results
CN[C@@H]1C[C@H]2O[C@@](C)([C@@H]1OC)n1c3ccccc3c3c4c(c5c6ccccc6n2c5c31)C(=O)NC4 [STAUROSPORINE] | 83.6 | 4.4 | 93 | 57.8 | 1 | 0.9 | 57 | 7.9 | 8.5 | 2.4 | 1.1 | 0.4 | 0.7 | 1.2 | 7.4 | 1.3 | 60.3 | 97.3 | 47.5 | 1 | Activity (T47D [21]): 4.8%; Activity (T47D [22]): 0.4%; viability at 0.1 µM (A2780 [23]): 90.5%; Activity (PC-3 [24]): 0.2%; viability at 1 µM (T47D [25]): 88.4%; Activity (A2780 [26]): 32.8%; Activity (MFE-296 [27]): 6.6%; viability at 0.3 µM (PC-3 [28]): 98.6%; Activity (MCF7 [29]): 9.6%
O=C(Nc1ccc(-c2cccc(Cl)c2)cn1)c1cncnc1 | 92.4 | 3.7 | 94.4 | 90 | 0.9 | 0.7 | 84.4 | 3.1 | 3.5 | 1.3 | 0.6 | 0.5 | 0.4 | 1.2 | 4.1 | 1.3 | 9.1 | 97 | 85.1 | 0.8 | Activity (MFE-296 [30]): 53.3%; Activity (MFE-296 [31]): 72.12%; Activity (MFE-280 [32]): 34.18%; Activity (T47D [33]): 27.41%; Activity (T47D [21]): 4.5%; Activity (T47D [22]): 0.3%; Activity (MCF7 [34]): 8.04%; Activity (MFE-280 [35]): 8.4%; viability at 0.1 µM (A2780 [23]): 92.7%; Activity (PC-3 [24]): 0.5%; Activity (T47D [36]): 42.55%; viability at 1 µM (T47D [25]): 82.9%; Activity (A2780 [26]): 4.1%; Activity (MFE-296 [27]): 5.7%; viability at 0.3 µM (PC-3 [28]): 98.2%; Activity (MCF7 [29]): 0.3%
